# US6512009B1, “Combination for the treatment of alcohol and drug dependence containing an opioid antagonist and a NMDA receptor complex modulator” (Lipha, priority 1998, dated 2003)
# Where two headings read alike, the source gives them in different places.
# Columns and labels:
# ethanol dependent rats = test: Voluntary ethanol intake in ethanol dependent (alcohol preferring) rats, free choice between 10% ethanol solution and water; type: in vivo, Long Evans rats
# Text: Ethanol dependent rats were selected as previously described (Boismare F., Daoust M., Moore N., Saligaut C., Chadelaud M., Chrétien P., Durlach J., Lhuintre J. P., A homotaurine derivative reduces the voluntary intake of ethanol by rats: are cerebral GABA receptors involved?, Pharm. Biochem. Behav., 21, 787-789, 1984).
# Adult male Long Evans rats weighing 180±20 g at the beginning of the experiment were obtained from “Centre d'élevage Janvier” (France). The rats were housed in individual cages and had free access to food (UAR, France standard diet). They were kept with an ambient temperature of 21° C. and a 12 hr/12 hr light-dark photoperiod. […] Every other day, fluid intakes and body weights were measured, the drinking bottles were refilled and randomly rotated. Food consumption was also measured each week be weighting food pellets. […]
# All the drugs were prepared as saline (NaCl 0.9%) solutions and animals were daily i.p. injected with: acamprosate 100 mg/kg, naltrexone 10 mg/kg, acamprosate 100 mg/kg+naltrexone 10 mg/kg or saline 1 ml/200 g body weight. […] Alcohol intakes were expressed as gram of absolute alcohol drunk per kilo of body weight per day (g.kg.d) for alcohol.
# FIG. 1 represents means±sem of ethanol intake, expressed as gram of absolute alcohol during each period of pre-treatment, treatment and post-treatment in all groups of rats. […]
# [1] = system: alcohol dependent patients; conditions: used together with supportive therapy; cited from earlier work
SMILES,"Ethanol intake (ethanol dependent rats; acamprosate 100 mg/kg daily i.p., 14 days treatment period, p<0.008)",Ethanol intake (ethanol dependent rats),Rate of relapse to heavy drinking [1]
CC(=O)NCCCS(=O)(=O)O [acamprosate],significantly decreased,–,–
O=C1CC[C@@]2(O)[C@H]3Cc4ccc(O)c5c4[C@@]2(CCN3CC2CC2)[C@H]1O5 [naltrexone],–,significantly decreased,reduce the rate of relapse to heavy drinking
